*1 amine or outer side, *2 acyl side, *3 side chain or, on linkers, in order; H or OH if unused. Where a SMILES comes first, the peptide text is derived from it. Side-chain parts run from the residue outwards. [ ]: non-standard residue; d: D form. The star is where a group is joined. Ala(4-thiazolyl) = N[C@@H](Cc1cscn1)C(=O)O; Cha = N[C@@H](CC1CCCCC1)C(=O)O; NH(3-picolyl) = c1cncc(CN*)c1; Agp = N=C(N)NC[C@H](N)C(=O)O; Chg = N[C@H](C(=O)O)C1CCCCC1; Tle = CC(C)(C)[C@H](N)C(=O)O; dDab = NCC[C@@H](N)C(=O)O; hSer = N[C@@H](CCO)C(=O)O; Orn = NCCC[C@H](N)C(=O)O; dDap = NC[C@@H](N)C(=O)O; Dab = NCC[C@H](N)C(=O)O; Dap = NC[C@H](N)C(=O)O; CO = O=C([*:1])[*:2]; X3 = O=C(C(O)CO)*; NHiPr = CC(C)N*
Tested on: human red blood cells (hRBC)
Assay: Hemolysis of human red blood cells
Type: cell-based
Conditions: red cells of human, 1 h, 100
Experimental: Lyophilized peptides were weighed on a Microbalance (Mettler MT5) and dissolved in sterile water to a final concentration of 1 mg/ml. Stock solutions were kept at +4° C., light protected.
The peptides were tested for their hemolytic activity against human red blood cells (hRBC). Fresh hRBC were washed three times with phosphate buffered saline (PBS) and centrifuged for 10 min at 2000×g. Compounds (100 μg/ml) were incubated with 20% hRBC (v/v) for 1 h at 37° C. and shaking at 300 rpm. The final erythrocyte concentration was approximately 0.9×10^9 cells/ml. A value of 0% and 100% cell lyses, respectively, was determined by incubation of hRBC in the presence of PBS containing 0.001% acetic acid and 2.5% Triton X-100 in H2O, respectively. The samples were centrifuged, the supernatants were 8-fold diluted in PBS buffer and the optical densities (OD) were measured at 540 nm. The 100% lyses value (OD540H2O) gave an OD540 of approximately 0.5-1.0.
Percent hemolysis was calculated as follows: (OD540peptide/OD540H2O)×100%.

| Compound | Hemolysis at 100 μg/ml |
| --- | --- |
| C[C@@H]1NC(=O)[C@H](C(C)(C)C)NC(=O)[C@H](CCN)NC(=O)[C@H](Cc2c[nH]c3ccccc23)NC(=O)[C@H](CCN)NC(=O)[C@@H](CCN)NC(=O)[C@H](CCCN)NC(=O)[C@H](CCN)NC(=O)[C@H](CC2CCCCC2)NC(=O)[C@H](CNC(=O)C(O)CO)NC(=O)[C@H](Cc2c[nH]c3ccccc23)NC(=O)[C@@H]2CCCN2C(=O)[C@H]2CCCN2C(=O)[C@H](CO)NC1=O (some centres unmarked) [compound 13] (cyclo(W[Dap](X3)[Cha][Dab][Orn][dDab][Dab]W[Dab][Tle]AS[dP]P)) | 2% |
| C[C@@H]1NC(=O)[C@H](C(C)(C)C)NC(=O)[C@H](CCN)NC(=O)[C@H](Cc2c[nH]c3ccccc23)NC(=O)[C@H](CCN)NC(=O)[C@@H](CCN)NC(=O)[C@H](CCCN)NC(=O)[C@H](CCN)NC(=O)[C@H](CC2CCCCC2)NC(=O)[C@H](CNC(=O)[C@@H](N)[C@@H](C)O)NC(=O)[C@H](Cc2c[nH]c3ccccc23)NC(=O)[C@@H]2CCCN2C(=O)[C@H]2CCCN2C(=O)[C@H](CO)NC1=O [compound 14] (cyclo(W[Dap](Thr)[Cha][Dab][Orn][dDab][Dab]W[Dab][Tle]AS[dP]P)) | 0% |
| CC(=O)N[C@H](C(=O)NC[C@@H]1NC(=O)[C@H](Cc2c[nH]c3ccccc23)NC(=O)[C@@H]2CCCN2C(=O)[C@H]2CCCN2C(=O)[C@H](CO)NC(=O)[C@H](C)NC(=O)[C@H](C(C)(C)C)NC(=O)[C@H](CCN)NC(=O)[C@H](Cc2c[nH]c3ccccc23)NC(=O)[C@H](CCN)NC(=O)[C@@H](CCN)NC(=O)[C@H](CCCN)NC(=O)[C@H](CCN)NC(=O)[C@H](CC2CCCCC2)NC1=O)[C@@H](C)O [compound 15] (cyclo(W[Dap]([Thr-Ac])[Cha][Dab][Orn][dDab][Dab]W[Dab][Tle]AS[dP]P)) | 1% |
| C[C@@H]1NC(=O)[C@H](C(C)(C)C)NC(=O)[C@H](CCN)NC(=O)[C@H](Cc2c[nH]c3ccccc23)NC(=O)[C@H](CCN)NC(=O)[C@@H](CCN)NC(=O)[C@H](CCCN)NC(=O)[C@H](CCN)NC(=O)[C@H](CC2CCCCC2)NC(=O)[C@H](CNC(=O)NCc2cccnc2)NC(=O)[C@H](Cc2c[nH]c3ccccc23)NC(=O)[C@@H]2CCCN2C(=O)[C@H]2CCCN2C(=O)[C@H](CO)NC1=O [compound 16] (cyclo(W[Dap]([CO-NH(3-picolyl)])[Cha][Dab][Orn][dDab][Dab]W[Dab][Tle]AS[dP]P)) | 7% |
| CC(C)NC(=O)NC[C@@H]1NC(=O)[C@H](Cc2c[nH]c3ccccc23)NC(=O)[C@@H]2CCCN2C(=O)[C@H]2CCCN2C(=O)[C@H](CO)NC(=O)[C@H](C)NC(=O)[C@H](C(C)(C)C)NC(=O)[C@H](CCN)NC(=O)[C@H](Cc2c[nH]c3ccccc23)NC(=O)[C@H](CCN)NC(=O)[C@@H](CCN)NC(=O)[C@H](CCCN)NC(=O)[C@H](CCN)NC(=O)[C@H](CC2CCCCC2)NC1=O [compound 17] (cyclo(W[Dap]([CO-NHiPr])[Cha][Dab][Orn][dDab][Dab]W[Dab][Tle]AS[dP]P)) | 6% |
| C[C@@H]1NC(=O)[C@H](C(C)(C)C)NC(=O)[C@H](CCN)NC(=O)[C@H](Cc2c[nH]c3ccccc23)NC(=O)[C@H](CCN)NC(=O)[C@@H](CCN)NC(=O)[C@H](CCCN)NC(=O)[C@H](CCN)NC(=O)[C@H](CC2CCCCC2)NC(=O)[C@H](CCO)NC(=O)[C@H](Cc2c[nH]c3ccccc23)NC(=O)[C@@H]2CCCN2C(=O)[C@H]2CCCN2C(=O)[C@H](CO)NC1=O [compound 18] (cyclo(W[hSer][Cha][Dab][Orn][dDab][Dab]W[Dab][Tle]AS[dP]P)) | 3% |
| C[C@@H]1NC(=O)[C@H](C(C)(C)C)NC(=O)[C@H](CCN)NC(=O)[C@H](Cc2c[nH]c3ccccc23)NC(=O)[C@H](CCN)NC(=O)[C@@H](CN)NC(=O)[C@H](CCCN)NC(=O)[C@H](CCN)NC(=O)[C@H](CC2CCCCC2)NC(=O)[C@H](CO)NC(=O)[C@H](Cc2c[nH]c3ccccc23)NC(=O)[C@@H]2CCCN2C(=O)[C@H]2CCCN2C(=O)[C@H](CO)NC1=O [compound 19] (cyclo(WS[Cha][Dab][Orn][dDap][Dab]W[Dab][Tle]AS[dP]P)) | 3% |
| CC(C)NC(=O)NC[C@@H]1NC(=O)[C@H](C)NC(=O)[C@H](C(C)(C)C)NC(=O)[C@H](CCN)NC(=O)[C@H](Cc2c[nH]c3ccccc23)NC(=O)[C@H](CCN)NC(=O)[C@@H](CCN)NC(=O)[C@H](CCCN)NC(=O)[C@H](CCN)NC(=O)[C@H](CC2CCCCC2)NC(=O)[C@H](C)NC(=O)[C@H](Cc2c[nH]c3ccccc23)NC(=O)[C@@H]2CCCN2C(=O)[C@H]2CCCN2C1=O [compound 20] (cyclo(WA[Cha][Dab][Orn][dDab][Dab]W[Dab][Tle]A[Dap]([CO-NHiPr])[dP]P)) | 4% |
| C[C@@H]1NC(=O)[C@H](C(C)(C)C)NC(=O)[C@H](CCN)NC(=O)[C@H](Cc2c[nH]c3ccccc23)NC(=O)[C@H](CCN)NC(=O)[C@@H](CCN)NC(=O)[C@H](CCCN)NC(=O)[C@H](CCN)NC(=O)[C@H](Cc2ccc(O)cc2)NC(=O)[C@H](CO)NC(=O)[C@H](Cc2ccc(O)cc2)NC(=O)[C@@H]2CCCN2C(=O)[C@H]2CCCN2C(=O)[C@H](CO)NC1=O [compound 21] (cyclo(YSY[Dab][Orn][dDab][Dab]W[Dab][Tle]AS[dP]P)) | 1% |
| C[C@@H]1NC(=O)[C@H](C(C)(C)C)NC(=O)[C@H](CCN)NC(=O)[C@H](Cc2c[nH]c3ccccc23)NC(=O)[C@H](CCN)NC(=O)[C@@H](CCN)NC(=O)[C@H](CCCN)NC(=O)[C@H](CCN)NC(=O)[C@H](CC2CCCCC2)NC(=O)[C@H](CO)NC(=O)[C@H](Cc2cscn2)NC(=O)[C@@H]2CCCN2C(=O)[C@H]2CCCN2C(=O)[C@H](CO)NC1=O [compound 22] (cyclo([Ala(4-thiazolyl)]S[Cha][Dab][Orn][dDab][Dab]W[Dab][Tle]AS[dP]P)) | 0% |
| C[C@@H]1NC(=O)[C@H](Cc2c[nH]c3ccccc23)NC(=O)[C@@H]2CCCN2C(=O)[C@H]2CCCN2C(=O)[C@H](CO)NC(=O)[C@H](CNC(=N)N)NC(=O)[C@H](C(C)(C)C)NC(=O)[C@H](CCN)NC(=O)[C@H](Cc2c[nH]c3ccccc23)NC(=O)[C@H](CCN)NC(=O)[C@@H](CCN)NC(=O)[C@H](CCCN)NC(=O)[C@H](CCN)NC(=O)[C@H](CC2CCCCC2)NC1=O [compound 23] (cyclo(WA[Cha][Dab][Orn][dDab][Dab]W[Dab][Tle][Agp]S[dP]P)) | 1.7% |
| CC(C)C[C@@H]1NC(=O)[C@@H]2CCCN2C(=O)[C@H]2CCCN2C(=O)[C@H](CO)NC(=O)[C@H](C)NC(=O)[C@H](C(C)(C)C)NC(=O)[C@H](CCN)NC(=O)[C@H](Cc2c[nH]c3ccccc23)NC(=O)[C@H](CCN)NC(=O)[C@H](CCN)NC(=O)[C@H](CCCN)NC(=O)[C@H](CCN)NC(=O)[C@H](Cc2ccc(O)cc2)NC(=O)[C@H](CO)NC1=O [compound 24] (cyclo(LSY[Dab][Orn][Dab][Dab]W[Dab][Tle]AS[dP]P)) | 1% |
| CC(C)C[C@@H]1NC(=O)[C@@H]2CCCN2C(=O)[C@H]2CCCN2C(=O)[C@H](CO)NC(=O)[C@H](C)NC(=O)[C@H](C(C)(C)C)NC(=O)[C@H](CCN)NC(=O)[C@H](Cc2c[nH]c3ccccc23)NC(=O)[C@H](CCN)NC(=O)[C@@H](CCN)NC(=O)[C@H](CCCCN)NC(=O)[C@H](CCN)NC(=O)[C@H](Cc2ccc(O)cc2)NC(=O)[C@H](CO)NC1=O [compound 25] (cyclo(LSY[Dab]K[dDab][Dab]W[Dab][Tle]AS[dP]P)) | 1% |
| CC(C)C[C@@H]1NC(=O)[C@@H]2CCCN2C(=O)[C@H]2CCCN2C(=O)[C@H](CO)NC(=O)[C@H](C)NC(=O)[C@H](C(C)(C)C)NC(=O)[C@H](CCN)NC(=O)[C@H](Cc2c[nH]c3ccccc23)NC(=O)[C@H](CCN)NC(=O)[C@H](CCN)NC(=O)[C@H](CCCCN)NC(=O)[C@H](CCN)NC(=O)[C@H](Cc2ccc(O)cc2)NC(=O)[C@H](CO)NC1=O [compound 26] (cyclo(LSY[Dab]K[Dab][Dab]W[Dab][Tle]AS[dP]P)) | 1% |
| COc1ccc(C[C@@H]2NC(=O)[C@H](CO)NC(=O)[C@H](CC(C)C)NC(=O)[C@@H]3CCCN3C(=O)[C@H]3CCCN3C(=O)[C@H](CO)NC(=O)[C@H](C)NC(=O)[C@H](C(C)(C)C)NC(=O)[C@H](CCN)NC(=O)[C@H](Cc3c[nH]c4ccccc34)NC(=O)[C@H](CCN)NC(=O)[C@@H](CCN)NC(=O)[C@H](CCCN)NC(=O)[C@H](CCN)NC2=O)cc1 [compound 27] (cyclo(LSY(Me)[Dab][Orn][dDab][Dab]W[Dab][Tle]AS[dP]P)) | 1% |
| CC(C)C[C@@H]1NC(=O)[C@@H]2CCCN2C(=O)[C@H]2CCCN2C(=O)[C@H](CO)NC(=O)[C@H](C)NC(=O)[C@H](C(C)(C)C)NC(=O)[C@H](CCN)NC(=O)[C@H](Cc2c[nH]c3ccccc23)NC(=O)[C@H](CCN)NC(=O)[C@@H](CCN)NC(=O)[C@H](CCCN)NC(=O)[C@H](CCN)NC(=O)[C@H](Cc2ccccc2)NC(=O)[C@H](CO)NC1=O [compound 28] (cyclo(LSF[Dab][Orn][dDab][Dab]W[Dab][Tle]AS[dP]P)) | 2% |
| CC(C)C[C@@H]1NC(=O)[C@@H]2CCCN2C(=O)[C@H]2CCCN2C(=O)[C@H](CO)NC(=O)[C@H](C)NC(=O)[C@H](C2CCCCC2)NC(=O)[C@H](CCN)NC(=O)[C@H](Cc2c[nH]c3ccccc23)NC(=O)[C@H](CCN)NC(=O)[C@@H](CCN)NC(=O)[C@H](CCCN)NC(=O)[C@H](CCN)NC(=O)[C@H](Cc2ccc(O)cc2)NC(=O)[C@H](CO)NC1=O [compound 29] (cyclo(LSY[Dab][Orn][dDab][Dab]W[Dab][Chg]AS[dP]P)) | 6% |
